These results are taken from publication PMC6923382, “Small molecules that inhibit TNF signalling by stabilising an asymmetric form of the trimer” (Nature Communications, 2019).

“And” between values parts separate entries of the source, which are not always exact repeats. Identical values can stand only once.

In one test the target is T1, mouse TNF (Mus musculus, UniProt P06804).
T1 construct: stabilise an asymmetrical form of the soluble TNF trimer
T1 sequence (P06804 80-235 limits assumed): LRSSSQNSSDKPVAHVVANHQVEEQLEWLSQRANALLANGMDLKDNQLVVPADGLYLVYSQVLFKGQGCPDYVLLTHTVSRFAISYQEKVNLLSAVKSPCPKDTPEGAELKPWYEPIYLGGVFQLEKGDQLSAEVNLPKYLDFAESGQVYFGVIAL
Put plainly: Mouse TNF induced neutrophil recruitment in vivo. The following applies: for CD45+ GR-1+ cells/mL in the peritoneal cavity: mouse TNF, individual mice. Here is the method:
All in vivo studies were reviewed by an internal Ethical Review Body (ERB) and conducted in accordance with the Animals (Scientific Procedures) Act 1986, EU Directive 2010/63/EU. […] Anti-TNFα biologics, CDP571[21] (10 mg/kg) and etanercept (30 mg/kg), diluted in PBS, were dosed intravenously prior to human and mouse TNF challenge. Two hours after the TNF challenge, mice were sacrificed and the peritoneal cavity lavaged with 3 mL of FACS buffer. An aliquot (0.3 mL) of lavage fluid was used to assess the number CD45^+GR1^+ cells by flow cytometry. Briefly, the cells were treated with ACK lysis buffer, washed and suspended in FACS buffer prior to staining with FITC anti-mouse CD45 and PE anti-mouse GR1. Data are shown as mean ± standard error of the number of CD45^+GR-1^+ cells. Statistical significance (*p < 0.05, **p < 0.01, ****p < 0.0001) was determined using one-way ANOVA with Dunnett’s multiple comparison test.

For test [1], the target named is T2, TNF (Homo sapiens, UniProt P01375). Put plainly: Biacore kinetics of binding. Also on record: Human TNF (CID2043, UniProt P01375 residues 77–233); 6XHis-Smt3 (N, cleaved yes); host or cells: E. coli TOP10. The following applies: SPR single-cycle; linked TNF with n-terminal HKH tag; read-out: KD. Here is the method:
Surface plasmon resonance using a Biacore T100/T200 was used to measure the association rate constant (ka), the dissociation rate constant (kd) and the affinity (KD) of compounds. TNF (VCID 2043 Beryllium) was immobilised to approximately 5 kRU as described above and equilibrated for at least 5 h in HBS P + buffer with 5% DMSO. UCB-6876 was serially diluted from 187.5 µM, flowing over the immobilised TNF at 50 µL/min for 3 min before allowing full dissociation under flow for at least 6 min. […] […] The compounds were allowed to dissociate for 2 h under flow.
Target sequence in this assay (P01375 with tags, fused parts or gaps): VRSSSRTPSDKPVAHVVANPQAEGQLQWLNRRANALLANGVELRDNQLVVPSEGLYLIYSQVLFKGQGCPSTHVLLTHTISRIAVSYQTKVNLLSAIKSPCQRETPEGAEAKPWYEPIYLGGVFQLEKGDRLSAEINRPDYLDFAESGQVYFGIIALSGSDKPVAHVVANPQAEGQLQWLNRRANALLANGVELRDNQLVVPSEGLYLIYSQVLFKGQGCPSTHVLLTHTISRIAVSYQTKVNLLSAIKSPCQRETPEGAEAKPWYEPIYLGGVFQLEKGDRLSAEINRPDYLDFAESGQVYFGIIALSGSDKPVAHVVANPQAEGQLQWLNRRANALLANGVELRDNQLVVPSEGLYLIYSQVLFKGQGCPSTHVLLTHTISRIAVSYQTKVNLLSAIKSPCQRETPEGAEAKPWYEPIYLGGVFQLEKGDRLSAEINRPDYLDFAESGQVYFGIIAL
(Surface plasmon resonance follows binding to a sensor surface in real time, without labels.)

Test [2] concerns the target T2, TNF. Description: Biacore binding with and without non-ionic detergent. Further details: stabilise an asymmetrical form of the soluble TNF trimer. The following applies: 0.01% v/v Triton X-100 and 0.025% v/v Tween-80; Biacore T200. As for the experimental part:
Experiments to show any effect of addition of non-ionic detergent were performed on a Biacore, with human TNF on the solid phase and compounds in solution phase in the presence and absence of 0.01% v/v Triton X-100 and 0.025% v/v Tween-80.
Three Biacore T200s were treated with sodium hypochlorite to remove any traces of detergent. Each machine was equilibrated in either HBS with no detergent (control), HBS:
Tween-P80 (0.025% v/v) or HBS: Triton X-100 (0.01% v/v). Human TNF was tethered to ~ 2000 RU before equilibration in the equivalent control or detergent buffers plus 1% DMSO. […]
were fitted to a BIAevaluation T200 1:1 algorithm and the fitted data shown. […]
Target sequence in this assay (P01375 77-233 limits assumed): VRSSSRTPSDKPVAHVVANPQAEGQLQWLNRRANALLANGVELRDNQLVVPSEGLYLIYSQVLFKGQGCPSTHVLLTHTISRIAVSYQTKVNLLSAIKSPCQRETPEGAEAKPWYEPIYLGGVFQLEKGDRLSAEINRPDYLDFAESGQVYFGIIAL

Test [3] concerns zymosan-induced neutrophil recruitment. Description: Zymosan induced neutrophil recruitment in vivo. Also on record: species or system mouse. Particulars: for percent over bar (inhibition of zymosan-induced neutrophil recruitment): Zymosan 1 µg per mouse i.p.; for CD45+ GR-1+ cells/mL in the peritoneal cavity: zymosan, individual mice. Here is the method:
Zymosan (R&D Systems) was administered by intraperitoneal injection at a concentration of 1 µg per mouse in PBS (100 µL). […] Four hours after the zymosan challenge, mice were sacrificed and the peritoneal cavity lavaged with 3 mL of FACS buffer. An aliquot (0.3 mL) of lavage fluid was used to assess the number of CD45^+GR1^+ cells by flow cytometry. Briefly, the cells were treated with ACK lysis buffer, washed and suspended in FACS buffer prior to staining with FITC anti-mouse CD45 and PE anti-mouse GR1 (BD Biosciences). Data are shown as mean ± standard error of the number of CD45^+GR-1^+ cells. Statistical significance (*p < 0.05, **p < 0.01, ***p < 0.001 and ****p < 0.0001) was determined using one-way ANOVA with Dunnett’s multiple comparison test.

As for `Cc1ccc(C)c(Cn2c(C(O)c3ccncc3)nc3ccc(-c4cnn(C)c4)cc32)c1` (stereo not drawn) [UCB-9260], the “CD45+ GR-1+ cells/mL in the peritoneal cavity” value at mouse TNF (10mg/kg) is 36683.8 cells/mL and 23446.5 cells/mL and 65459.0 cells/mL and 42287.7 cells/mL and 32860.3 cells/mL and 46170.3 cells/mL and 36366.5 cells/mL; on mouse TNF (30mg/kg) it was 68892.4 cells/mL and 37218.6 cells/mL and 45217.2 cells/mL and 30219.5 cells/mL and 27497.1 cells/mL and 16597.5 cells/mL; at mouse TNF (100mg/kg), 11514.8 cells/mL and 33134.0 cells/mL and 13657.2 cells/mL and 18518.9 cells/mL and 17977.4 cells/mL and 18837.9 cells/mL and 21785.8 cells/mL and 22316.6 cells/mL; on mouse TNF (300mg/kg), 6821.7 cells/mL and 12941.2 cells/mL and 5881.9 cells/mL and 6788.4 cells/mL and 5482.5 cells/mL and 47242.4 cells/mL and 15367.3 cells/mL and 2338.2 cells/mL; in test [3] (10mg/kg) it was 195599.4 cells/mL and 255505.0 cells/mL and 196418.3 cells/mL and 192743.4 cells/mL and 219374.0 cells/mL and 134444.4 cells/mL and 127176.3 cells/mL and 228610.3 cells/mL; in test [3] (30mg/kg), 308000.0 cells/mL and 169293.1 cells/mL and 102620.5 cells/mL and 226129.3 cells/mL and 167710.1 cells/mL and 175546.4 cells/mL and 66491.2 cells/mL and 345608.1 cells/mL. The “CD45+ GR-1+ cells/mL in the peritoneal cavity” value is 80477.6 cells/mL and 108548.6 cells/mL and 137240.9 cells/mL and 57696.4 cells/mL and 231185.2 cells/mL and 83347.1 cells/mL and 39698.9 cells/mL and 112119.6 cells/mL in test [3] (100mg/kg); 106121.8 cells/mL and 78357.0 cells/mL and 70745.1 cells/mL and 93070.9 cells/mL and 117333.3 cells/mL and 57439.3 cells/mL and 69649.3 cells/mL and 44069.8 cells/mL in test [3] (300mg/kg). Besides, at mouse TNF (oral, murine TNF i.p., CD45+GR1+ cells), the “dose with significant inhibition of neutrophil recruitment” value is 10 mg/kg. Moreover, the Kd (in general, a measure of binding affinity in units of concentration) at TNF [1] is 13 nM. Further, the “effect of non-ionic detergents on binding to human TNF” value on TNF [2] was “does not alter the binding”. Also, the “percent over bar (inhibition of zymosan-induced neutrophil recruitment)” value in test [3] (10 mg/kg p.o., 4 hours, mean ± s.e.) was determined as 11±14%; in test [3] (30 mg/kg p.o.), 10±16%; in test [3] (100 mg/kg p.o.), 51±10%; in test [3] (300 mg/kg p.o.), 64±4%.
